In publication PMC2119004 (The Journal of Experimental Medicine, 1991):
Ends that are not written are not given here.

Assays:
[1] = tested on: apamin-specific T cells; conditions: live APC; reduced and alkylated apamin; cited from earlier work
[2] = tested on: Bb-6 and Bd-l.4 T cell hybridomas; test: Stimulation of T cell hybridomas in the presence of live APC; type: cell-based, mouse; conditions: Fig. 2; for stimulation of T cells in the presence of live APC (in words): live TH2.2, serum-containing media, 24 h, HT-2 lymphokine assay
[3] = molecular target: I-Ad (Mus musculus, UniProt P01921+P04228); test: Inhibition of biotin-Myo; type: binding; conditions: Fig. 7a; 1 mM DTT, 48 h
[4] = tested on: Bb-6 and Bd-l.4 T cell hybridomas; test: Stimulation of T cell hybridomas by fixed APC; type: cell-based, mouse; conditions: for requirement of DTT for presentation by fixed APC (in words): Fig. 4, fixed TH2.2, 18 h at 37°C, 0.15 M citrate/phosphate, pH 5 (A(1-14) forms) or pH 6 (sulfonated A chain), ± 2 mM DTT
[5] = molecular target: T1, I-Ed (Mus musculus, UniProt P01904+P01915); test: Inhibition of biotin-HEL; type: binding; conditions: Fig. 8b; 2 µM biotin-HEL(104-120)
T1 sequence (P01904 whole entry, looked up): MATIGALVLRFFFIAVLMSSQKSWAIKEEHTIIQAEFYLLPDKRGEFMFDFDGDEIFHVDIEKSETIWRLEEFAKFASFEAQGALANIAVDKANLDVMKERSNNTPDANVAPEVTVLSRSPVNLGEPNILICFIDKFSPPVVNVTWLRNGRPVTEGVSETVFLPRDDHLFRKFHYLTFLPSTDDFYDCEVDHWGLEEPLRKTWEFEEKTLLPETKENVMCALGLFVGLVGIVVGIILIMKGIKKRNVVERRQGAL
T1 sequence (P01915 whole entry, looked up): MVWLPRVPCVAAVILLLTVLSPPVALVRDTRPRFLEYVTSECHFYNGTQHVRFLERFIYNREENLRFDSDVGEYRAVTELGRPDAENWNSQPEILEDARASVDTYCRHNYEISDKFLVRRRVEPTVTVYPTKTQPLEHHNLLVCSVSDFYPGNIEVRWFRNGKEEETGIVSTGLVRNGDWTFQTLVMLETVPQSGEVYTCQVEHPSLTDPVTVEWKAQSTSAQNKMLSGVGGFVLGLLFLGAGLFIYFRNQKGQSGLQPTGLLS

[6] = tested on: Bb-6 T cell hybridoma (I-Ab-restricted); conditions: cited from earlier work
[7] = tested on: Bd-l.4 T cell hybridoma (I-Ad-restricted); conditions: cited from earlier work
[8] = molecular target: T1, I-Ed; test: Binding of alkylated HEL; conditions: data not shown
[9] = tested on: insulin-immune or A(1-14)-immune H-2d and H-2b lymph node lymphocytes; test: Lymph node proliferation assay; type: cell-based, mouse; conditions: Fig. 6a,b; INS-primed BALB/c or C57BL/10 (H-2d, H-2b); 4 d, [3H]thymidine
[10] = molecular target: T2, I-Ad (Mus musculus, UniProt P01921+P04228); test: Binding of biotinylated insulin to purified I-Ad; conditions: preliminary, data not shown; absence of reduction
T2 sequence (P01921 whole entry, looked up): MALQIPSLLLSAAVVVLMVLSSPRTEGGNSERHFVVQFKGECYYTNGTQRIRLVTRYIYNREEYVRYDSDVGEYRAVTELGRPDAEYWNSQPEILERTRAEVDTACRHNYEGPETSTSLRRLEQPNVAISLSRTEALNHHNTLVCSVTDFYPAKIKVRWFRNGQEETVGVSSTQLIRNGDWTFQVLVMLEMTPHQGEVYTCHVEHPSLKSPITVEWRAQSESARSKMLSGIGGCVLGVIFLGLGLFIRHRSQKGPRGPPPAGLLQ
T2 sequence (P04228 whole entry, looked up): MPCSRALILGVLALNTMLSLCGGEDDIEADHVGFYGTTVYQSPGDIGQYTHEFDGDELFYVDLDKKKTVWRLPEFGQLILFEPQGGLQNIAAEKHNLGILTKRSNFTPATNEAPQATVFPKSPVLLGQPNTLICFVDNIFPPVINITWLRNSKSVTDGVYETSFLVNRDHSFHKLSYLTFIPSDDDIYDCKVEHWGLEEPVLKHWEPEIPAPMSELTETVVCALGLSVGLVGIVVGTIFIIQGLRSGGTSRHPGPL

[11] = tested on: I-Ab-restricted beef insulin-reactive T cell clones; conditions: large panel of I-Ab-restricted beef insulin-reactive T cell clones; cited from earlier work

Compound: apamin
- T cells failing to recognize apamin after reduction and alkylation [1]: 3/16

Compound: purified A chain from oxlNS: purified A chain from oxINS insulin
- stimulation of T cells in the presence of live APC (in words) [2]: do not stimulate these T cells

Compound: O[C@@H](CS)[C@@H](O)CS (racemic) [DTT, dithiothreitol]
- inhibition of peptide binding by DTT alone (in words) [3]: did not inhibit peptide binding

Compound: GIVEQCCASVCSLY [A(1-14)]
- potency relative to insulin/DTT with fixed APC (in words) ([4]; Fig. 3, fixed TH2.2): equivalent
- inhibition of biotin-HEL(104-120) binding to I-Ed (in words) [5]: only at relatively high
- stimulation of T cells in the presence of live APC (in words) [2]: essentially inactive

Compound: pork insulin: pork insulin
- recognition by Bb-6 (in words) [6]: but not pork, insulin
- recognition by Bd-l.4 (in words) [7]: partiallycrossreactivewith pork insulin

Compound: air oxidized A(1-14): air-oxidized form of A(1-14) (GIVEQCCASVCSLY; disulfide (positions not given here); also: air-oxidized, interchain disulfides; UniProt P01317 85-98, looked up, fragment)
- requirement of DTT for presentation by fixed APC (in words) [4]: disulfide reduction was required for presentation

Compound: oxlNS: Performic acid-oxidized beef insulin
- stimulation of T cells in the presence of live APC (in words) [2]: do not stimulate these T cells

Compound: rcamlNS: reduced and carboxyamidomethylated beef insulin
- stimulation of T cells in the presence of live APC (in words) [2]: do not stimulate these T cells

Compound: GMNAWVAWRNRC- KGTDVY [HEL(104-120)]
- effect of sulfhydryl alkylation on binding to I-Ed (in words) [8]: does not affect its capacity to bind purified FEd

Compound: FVNQHLCGSHLVEALYLVCG- ERGFFYTPKA [B(1-30)]
- proliferation of beef insulin-immune lymphocytes (in words) [9]: but not to B chain

Compound: INS: Beef insulin purchased from Elanco Products Co.
- molar excess of DTT to insulin disulfides at optimal response ([4]; Fig. 1b, fixed TH2.2, 33 µM INS): ~10 fold
- DTT concentration for optimal T cell responses ([4]; Fig. 1b, fixed TH2.2, 18 h at 37°C in PBS, 33 µM INS): 0.1 to 1 mM
- activation of T cells by fixed APC exposed to antigen and DTT (in words) ([4]; fixed TH2.2, overnight, 2 mM DTT): able to activate Bb-6 and Bd-l.4 T cells

Compound: biotinylated insulin: biotinylated insulin
- binding of biotinylated insulin to I-Ad without reduction (in words) [10]: can bind to I-Ad

Compound: Sulfonated A chain: sulfonated A chain of beef insulin purified from sulfonated insulin by reverse-phase HPLC
- fraction of T cell clones responding to sulfonated A chain but not performic acid-oxidized insulin [11]: > 90%
- requirement of DTT for presentation by fixed APC (in words) [4]: in the presence, but not the absence, of DTT were capable of stimulating Bd-l.4 and Bb-6
- fold lower concentration of intact insulin giving comparable stimulation ([2]; live APC, both I-Ab- and I-Ad-restricted T cells): 3-10 fold
